From patent publication US20200171056A1, “SULFONYLUREA COMPOUNDS IN THE TREATMENT OF DISEASE ASSOCIATED WITH UV-INDUCED DAMAGE” (CeMM - Forschungszentrum für Molekulare Medizin GmbH, priority 2017, published 2020)

Columns and labels:
WT cells = test: Cell viability of WT cells after UV exposure, comparison with antioxidant; type: cell-based, human; conditions: 30 μM NAC for 6 hours, then 30 J/M^2 UV, compared with 0.5 mM acetohexamide (FIG. 8E)
Method: A. WT and ΔXPA cells were either treated with DMSO or 0.5 mM acetohexamide for 6 hours. Cell cycle profiles were determined using propidium iodide (P1) staining followed by FACS analysis. B-D. Survival of WT HAP1 cells treated with either DMSO or 0.5 mM acetohexamide for 6 hours, followed by exposure to the indicated DNA damaging agents (MMC: mitomycin C; HU: hydroxyl urea; MMS: methyl methanesulfonate). Survival was assessed after 3 days using CellTitre-Glo. E. Cell viability of WT cells treated either with 0.5 mM acetohexamide or 30 μM N-acetylcysteine (NAC) for 6 hours, followed by 30 J/M^2 UV exposure.
(§1) For UV irradiation, cells were washed with PBS, trypsinized, counted and distributed in equal number then irradiated with different doses of UV as indicated. Finally, 1,000 cells were re-distributed into 96 well plates. After 72 hours, survival was measured using Cell Titer-Glo (Promega). Cells were irradiated with UVC using the UVP CX-2000 device (254 nm, Fisher Scientific).

ΔXPA cells = test: Short-term survival after UV irradiation (CellTiter-Glo); type: cell-based, human; conditions: for protective effect of ΔXPA cells against UV (cell viability): different concentrations for 6 hours, then 10 J/M^2 UV (FIG. 10A-C)
Source text: A. Schematic representation of the experimental setup used to perform the high-throughput drug screen, where drugs were used at five-times maximal plasma concentration (CLOUD; CeMM library of unique drugs). B. Bubble plot displaying the drugs used plotted against cell viability. Light grey bubbles indicate wildtype (WT) cells, dark grey bubbles indicate XPA-deficient cells (ΔXPA). […] C. Chemical structure of acetohexamide. D. Dose-response curve of WT and ΔXPA cells treated with or without 0.5 mM acetohexamide for 6 hours, followed by UV irradiation. Survival was assessed after 3 days, using CellTiter-Glo. […] Error bars indicate SEM (n=3). E. Colony formation using the same conditions indicated in (D), where cells were kept in culture for 10 days following UV irradiation, following which they were fixed and stained.
A-C. Cell viability of ΔXPA cells treated with different concentrations of acetohexamide (aceto), gliclazide (GLC) and glimepiride (GLM) for 6 hours, followed by 10 J/M^2 of UV irradiation. D. Survival of WT and ΔXPA cells treated with or without 50 μM glibenclamide for 6 hours, followed by UV exposure. Survival was assessed after 3 days using CellTitre-Glo. E. Cell viability of ΔXPA cells treated with 10 μM of different derivatives of acetohexamide for 6 hours, followed by UV irradiation with 5 J/M^2.
as §1

## CC(=O)N[C@@H](CS)C(=O)O [N-acetylcysteine]
WT cells
  alleviating UV-induced sensitivity (cell viability): very minor effect in alleviating UV-induced sensitivity compared to acetohexamide

## COc1ccc(Cl)cc1C(=O)NCCc1ccc(S(=O)(=O)NC(=O)NC2CCCCC2)cc1 [glibenclamide]
ΔXPA cells; 50 μM for 6 hours, then UV, survival after 3 days (FIG. 10D)
  protective effect of ΔXPA cells against UV (survival): Only glimepiride showed a protective effect

## Cc1ccc(S(=O)(=O)NC(=O)NN2CC3CCCC3C2)cc1 (stereo not shown) [gliclazide]
ΔXPA cells
  protective effect of ΔXPA cells against UV (cell viability): Only glimepiride showed a protective effect

## CCC1=C(C)CN(C(=O)NCCc2ccc(S(=O)(=O)NC(=O)N[C@H]3CC[C@H](C)CC3)cc2)C1=O [glimepiride]
ΔXPA cells
  protective effect of ΔXPA cells against UV (cell viability): showed a protective effect
